The results in this text go back to patent US6528464B1, “Composition and method for inhibiting uptake of biguanide antimicrobials by hydrogels” (Bausch & Lomb Incorporated, priority 2001, dated 2003).

A short description of the data set: Uptake (sorption) of Alexidine by SureVue hydrogel contact lenses after overnight soak. The class given is physicochemical. An excerpt: The following examples evaluate whether the addition of cyclodextrin reduced the sorption of the biguanide Alexidine on SureVue® brand hydrogel contact lenses (commercially available from Johnson & Johnson Vision Care Incorporated of Jacksonville, Fla.).
5. 3-mL of each test solution, as well as the control solution, were placed into the lens cases for a total of 5 samples per solution.
6. SureVue® lenses were placed into each lens well aseptically.
7. Each lens was “dipped” into double-distilled water for approximately 2 seconds prior to installation into the lens cases.
8. Lenses were allowed to soak for approximately 18 hours (overnight).
9. 1-mL of solution from each of the lens wells was removed, analyzed and returned to the lens cases.

Consider `CCCCC(CC)CNC(=N)NC(=N)NCCCCCCNC(=N)NC(=N)NCC(CC)CCCC` (centres unmarked) [Alexidine], for which the “Uptake of Alexidine by SureVue ® Lenses (0.1% Beta-Cyclodextrin)” value (0.1% Beta-Cyclodextrin, soak approximately 18 hours) turned out to be 62.10 ppm. Further, the “Uptake of Alexidine by SureVue ® Lenses (0.3% Beta-Cyclodextrin)” value (0.3% Beta-Cyclodextrin, soak approximately 18 hours) came to 31.04 ppm. The “Uptake of Alexidine By SureVue ® Lenses” value (no Beta-Cyclodextrin (control solution), soak approximately 18 hours) is reported as 75.26 ppm.

Regarding `OC[C@H]1O[C@@H]2O[C@H]3[C@H](O)[C@@H](O)[C@@H](O[C@H]4[C@H](O)[C@@H](O)[C@@H](O[C@H]5[C@H](O)[C@@H](O)[C@@H](O[C@H]6[C@H](O)[C@@H](O)[C@@H](O[C@H]7[C@H](O)[C@@H](O)[C@@H](O[C@H]8[C@H](O)[C@@H](O)[C@@H](O[C@H]1[C@H](O)[C@H]2O)O[C@@H]8CO)O[C@@H]7CO)O[C@@H]6CO)O[C@@H]5CO)O[C@@H]4CO)O[C@@H]3CO` [Beta-Cyclodextrin], the “Inhibition of uptake of Alexidine by SureVue ® Lenses” value by setting is: (0.1% Beta-Cyclodextrin) 17.50% Inhibition; (0.3% Beta-Cyclodextrin) 58.75% Inbibition.
